# Laboratory results taken from patent publication US9181265B2, “Substituted 2,3-dihydro-1H-benzo[a]pyrano[2,3-c]phenazines as anti-angiogenic and anti-cancer agents” (UNIVERSITE CATHOLIQUE DE LOUVAIN, priority 2010, dated 2015).
# Like-named read-outs stand apart in the source and are kept apart here. Marks after values point to notes of the source that are not given here.
# Columns and labels:
# siHa = test: MTT test of overall cell growth, SiHa cervix cancer cells, normoxia or hypoxia; type: cell-based, human; conditions: for IC50: Homo sapiens; for Selectivity: IC50 (normoxia)/IC50 (hypoxia 1% O2), if u.t.d., ratio of activity at 100 μM
# Protocol: (§1) MTT tests were performed in order to rapidly, i.e. within 3 days, measure the effect of compounds of this invention on the overall cell growth. The test measured the number of metabolically active living cells that were able to transform the yellow product 3-(4,5-dimethylthiazol-2-yl)-2,5-diphenyl tetrazolium bromide (herein referred as MTT) into the blue product formazan dye by mitochondrial reduction. The amount of formazan obtained at the end of the experiment, measured by means of a spectrophotometer (Plate Reader Victor X4 Microplate reader (Perkin Elmer), is directly proportional to the number of living cells. Optical density determination thus enabled a quantitative measurement of the effect of the investigated compounds under control conditions (normoxia) as compared to the hypoxic conditions (0.1 or 1% O2) and/or untreated conditions.
# (§2) Human umbilical vein endothelial cells (HUVEC) and six human cancer cell lines were used in the MTT tests. These cancer cell lines cover five histological cancer types including cervix (SiHa), breast (MCF-7 and MDA-MB231), prostate (PC3), glioma (U373), and colorectal (LoVo) cancers.
# (§3) To perform the assay, cells were allowed to grow in 96-well microplates with a flat bottom following addition of an amount of 100 μl of cell suspension per well with 4,500 cells/well. Each cell line was seeded in its appropriate culture medium. HUVEC were cultured in a specific endothelial cell growth medium (ECACC, Sigma); SiHa cells in Glutamax-containing DMEM with 4.5 g/1 glucose (Invitrogen) supplemented with 10% Foetal Bovine Serum (PAA) and 1% penicillin+streptomycin mix (Invitrogen); MCF-7, MDA-MB-231, PC3, and LoVo cells in Glutamax-containing RPMI supplemented with 10% Foetal Bovine Serum (PAA) and 1% penicillin+streptomycin mix (Invitrogen) and U373 cells in Glutamax-containing DMEM (Invitrogen) with 5% Foetal Bovine Serum (PAA) and 1% penicillin+streptomycin mix (Invitrogen).
# (§4) The detailed experimental procedure was the following: after a 24-hour period of incubation at 37° C., the culture medium was replaced by 100 μl of fresh medium in which the tested compound was previously dissolved, at the following concentrations: 10^−8 M, 5.10^−8, 10^−7, 5.10^−7, 10^−6, 5.10^−6, 10^−5, 5.10^−5 and 10^−[…]. Each experiment was performed in sestuplicates (6 times).
# (§5) Cells were then incubated under normoxia in a Binder incubator (the O2 level corresponding to the concentration in the ambient air), or in a Ruskin hypoxia workstation under either 0.1% O2 (v/v) or 1% O2 (v/v). Under both conditions, the atmosphere was humidified and the CO2 concentration was fixed at 5 vol. %.
# (§6) After 72 hours of incubation at 37° C. under normoxic or hypoxic conditions, with or without the compound to be tested, the medium was replaced by 100 μl of HBSS (without phenol red) containing MTT at a concentration of 0.5 or 1 mg/ml. The micro-wells were subsequently incubated during 3 hours and a half at 37° C. and centrifuged at 1300 rpm during 10 minutes. Medium was removed and formazan crystals formed were dissolved in 100 μl DMSO. The micro-wells were shaken for 5 minutes and read on a spectrophotometer at wavelengths of 570 nm (maximal formazan absorbance).
# (§7) For each experimental condition, the mean optical density was calculated, allowing the determination of the percentage of living cells in comparison to the control.
# MCF-7 = test: MTT test of overall cell growth, MCF-7 breast cancer cells, normoxia or hypoxia; type: cell-based, human; conditions: for IC50: Homo sapiens, MCF7; for Selectivity: MCF-7, IC50 (normoxia)/IC50 (hypoxia 1% O2), if u.t.d., ratio of activity at 100 μM
# Protocol: as §1, §2, §3, §4, §5, §6, §7
# MDA-MB-231 = test: MTT test of overall cell growth, MDA-MB-231 breast cancer cells, normoxia or hypoxia; type: cell-based, human; conditions: for IC50: Homo sapiens; for Selectivity: MDA-MB-231, IC50 (normoxia)/IC50 (hypoxia 1% O2), if u.t.d., ratio of activity at 100 μM
# Protocol: as §1, §2, §3, §4, §5, §6, §7
# PC3 = test: MTT test of overall cell growth, PC3 prostate cancer cells, normoxia or hypoxia; type: cell-based, human; conditions: for IC50: Homo sapiens, PC-3; for Selectivity: PC3, IC50 (normoxia)/IC50 (hypoxia 1% O2), if u.t.d., ratio of activity at 100 μM
# Protocol: as §1, §2, §3, §4, §5, §6, §7
# U373 = test: MTT test of overall cell growth, U373 glioma cells, normoxia or hypoxia; type: cell-based, human; conditions: for IC50: Homo sapiens, U373 MG; for Selectivity: U373, IC50 (normoxia)/IC50 (hypoxia 1% O2), if u.t.d., ratio of activity at 100 μM
# Protocol: as §1, §2, §3, §4, §5, §6, §7
# [1] = tested on: Human umbilical vein endothelial cells (HUVEC); test: MTT test of overall cell growth, endothelial cells, normoxic or hypoxic conditions; type: cell-based; conditions: for IC50: Homo sapiens; for Selectivity: if u.t.d., ratio of activity at 100 μM
# Protocol: as §1, §2, §3, §4, §5, §6, §7
# LoVo = test: MTT test of overall cell growth, LoVo colorectal cancer cells, normoxia or hypoxia; type: cell-based, human; conditions: for IC50: Homo sapiens; for Selectivity: IC50 (normoxia)/IC50 (hypoxia 1% O2), if u.t.d., ratio of activity at 100 μM
# Protocol: as §1, §2, §3, §4, §5, §6, §7
# [2] = hypoxia 1% O2, 72 h, read-out: IC50 (μM) Hypoxia 1% O2
# [3] = MDA-MB-231, hypoxia 1% O2, 72 h, read-out: IC50 (μM) Hypoxia 1% O2
# [4] = U373, hypoxia 1% O2, 72 h, read-out: IC50 (μM) Hypoxia 1% O2
# [5] = 72 h, hypoxia 0.1% O2, 72 h, read-out: IC50 (μM) Hypoxia 0.1%
# [6] = 72 h, hypoxia 1% O2, 72 h, read-out: IC50 (μM) Hypoxia 1%
# [7] = 72 h, normoxia, 72 h, series compared with hypoxia 1%, read-out: IC50 (μM) Normoxia
# [8] = IC50 (normoxia)/IC50 (hypoxia 0.1%)
# [9] = IC50 (normoxia)/IC50 (hypoxia 1%)
# [10] = normoxia, 72 h, read-out: IC50 (μM) Normoxia
# [11] = MCF-7, hypoxia 1% O2, 72 h, read-out: IC50 (μM) Hypoxia 1% O2
# [12] = MCF-7, normoxia, 72 h, read-out: IC50 (μM) Normoxia
# [13] = MDA-MB-231, normoxia, 72 h, read-out: IC50 (μM) Normoxia
# [14] = PC3, hypoxia 1% O2, 72 h, read-out: IC50 (μM) Hypoxia 1% O2
# [15] = PC3, normoxia, 72 h, read-out: IC50 (μM) Normoxia
# [16] = U373, normoxia, 72 h, read-out: IC50 (μM) Normoxia
# [17] = 72 h, normoxia, 72 h, series compared with hypoxia 0.1%, read-out: IC50 (μM) Normoxia
Structure (SMILES),IC50 (siHa; [2]) [µM],Selectivity (siHa),IC50 (MDA-MB-231; [3]) [µM],Selectivity (MDA-MB-231),IC50 (U373; [4]) [µM],Selectivity (U373),"IC50 [1, 5] [µM]","IC50 [1, 6] [µM]","IC50 [1, 7] [µM]","Selectivity [1, 8]","Selectivity [1, 9]",IC50 (LoVo; [2]) [µM],IC50 (LoVo; [10]) [µM],Selectivity (LoVo),IC50 (siHa; [10]) [µM],IC50 (MCF-7; [11]) [µM],IC50 (MCF-7; [12]) [µM],Selectivity (MCF-7),IC50 (MDA-MB-231; [13]) [µM],IC50 (PC3; [14]) [µM],further results
COC(=O)c1ccc2nc3c4c(c5ccccc5c3nc2c1)OC(C)(C)[C@H]1CC[C@H](C)C[C@H]41 [Compound 11],134,>1.69^b,158,>1.44^b,141,>1.61^b,65.8,10.9,149,>3.4^b,14,152,216,1.42,–,–,–,–,–,–,"IC50 (μM) Normoxia (siHa; normoxia, 72 h): u.t.d.; IC50 (μM) Hypoxia 1% O2 (MCF-7; MCF-7, hypoxia 1% O2, 72 h): u.t.d.; IC50 (μM) Normoxia (MCF-7; MCF-7, normoxia, 72 h): u.t.d.; IC50 (μM) Normoxia (MDA-MB-231; MDA-MB-231, normoxia, 72 h): u.t.d.; IC50 (μM) Hypoxia 1% O2 (PC3; PC3, hypoxia 1% O2, 72 h): u.t.d.; IC50 (μM) Normoxia (PC3; PC3, normoxia, 72 h): u.t.d.; IC50 (μM) Normoxia (U373; U373, normoxia, 72 h): u.t.d.; IC50 (μM) Normoxia ([1]; normoxia, 72 h, series compared with hypoxia 0.1%): u.t.d."
C[C@H]1CC[C@H]2[C@H](C1)c1c(c3ccccc3c3nc4ccc(C(=O)N5CCOCC5)cc4nc13)OC2(C)C (racemic) [Compound 12′],1.17,62.07,1.31,33.85,0.61,15.00,0.04,0.14,4.14,105,29,1.21,10.6,8.75,72.6,1.45,11.3,7.78,44.4,1.41,"IC50 (PC3; [15]): 15.3 µM; Selectivity (PC3): 10.86; IC50 (U373; [16]): 9.08 µM; IC50 [1, 17]: 4.24 µM"
C[C@H]1CC[C@H]2[C@H](C1)c1c(c3ccccc3c3nc4cc(C(=O)N5CCOCC5)ccc4nc13)OC2(C)C (racemic) [Compound 12],1.13,17.50,1.27,23.81,0.14,75.00,0.14,0.4,5.65,58,14,1.31,9.69,7.38,19.8,1.45,8.07,5.56,30.3,1.31,"IC50 (PC3; [15]): 14.7 µM; Selectivity (PC3): 11.23; IC50 (U373; [16]): 10.6 µM; IC50 [1, 17]: 8.27 µM"
